Counter-ions that a name gives are not always drawn. Like-named read-outs stand apart in the source and are kept apart here.
Experiments:
[1] = Cytotoxicity evaluation, MTT; type: cell-based, human; conditions: HepG2 cells (hepatocarcinoma-derived, ATCC HB-8065); human HepG2 cells, 72 hours, MTT
Experimental: The aim of this assay was to evaluate the impact of metabolic activation of the tested compounds on cell viability.
A cytotoxicity evaluation was performed using the method reported in Emami S A et al., Iran J Basic Med Sci 2012; 15:807-11 to determine the cytotoxic concentrations 50% (CC50) and using doxorubicin as a cytotoxic reference compound. These assays were performed in human HepG2 cells. HepG2 cells were purchased from ATCC (ref HB-8065). These cells are a commonly used human hepatocarcinoma-derived cell line that has characteristics similar to those of primary hepatocytes. These cells express many hepatocyte-specific metabolic enzymes, thus enabling the cytotoxicity of tested product metabolites to be evaluated. Briefly, cells in 100 μl of complete RPMI medium [RPMI supplemented with 10% FCS, 1% 1-glutamine (200 mM), penicillin (100 U/ml), and streptomycin (100 μg/ml)] were inoculated into each well of 96-well plates and incubated at 37° C. in a humidified chamber in 6% CO2. After 24 hours, 100 μl of medium with test compound at various concentrations dissolved in DMSO (final concentration less than 0.5% v/v) was added, and the plates were incubated for 72 hours at 37° C. Duplicate assays were performed for each sample. Each well was microscopically examined for precipitate formation before the medium was aspirated from the wells. After aspiration, 100 μl of MTT solution (0.5 mg/ml in medium without FCS) were then added to each well. Cells were incubated for 2 hours at 37° C. MTT solution was removed, and DMSO (100 μl) was added to dissolve the resulting blue formazan crystals. Plates were shaken vigorously (300 rpm) for 5 min. The absorbance was measured at 570 nm with 630 nm as reference wavelength in a BIO-TEK ELx808 Absorbance Microplate Reader. DMSO was used as blank and doxorubicin (Sigma-Aldrich) as positive control. Cell viability was calculated as percentage of control (cells incubated without compound).

[2] = system: T. brucei brucei AnTat 1.9; experiment: In vitro antitrypanosomal activity, Alamar Blue assay; type: cell-based, Trypanosoma brucei brucei; conditions: Trypanosoma brucei, read-out: IC50 T. brucei brucei
Experimental: The effects of the tested compounds on the growth of T. brucei brucei were assessed using an Alamar Blue® assay described in B. Raz et al., Acta Trop. 1997, 68, 139. T. brucei brucei AnTat 1.9 (IMTA, Antwerpen, Belgium) was cultured in MEM with Earle's salts, supplemented according to the protocol disclosed in T. Baltz et al., EMBO J. 1985, 4, 1273, with the following modifications: 0.5 mM mercaptoethanol (Sigma-Aldrich), 1.5 mM 1-cysteine (Sigma-Aldrich), 0.05 mM bathocuproine sulfate (Sigma-Aldrich), and 20% heat-inactivated horse serum (Gibco, France) at 37° C. and 5% CO2. Samples were incubated at an average density of 2000 parasites/well in sterile 96-well plates (Fisher, France) with various concentrations of compounds dissolved in 0.9% NaCl. All doses were tested in duplicate. Appropriate controls treated with solvents 0.9% NaCl or DMSO or with suramin, pentamidine, eflornithine, and fexinidazole (reference drugs purchased from Sigma-Aldrich and Fluorochem, UK) were added to each set of experiments. After a 69-hour incubation at 37° C., 10 μl of the viability marker Alamar Blue (Fisher) was added to each well, and the plates were incubated for 5 hour. The plates were read in a PerkinElmer ENSPIRE (Germany) microplate reader using an excitation wavelength of 530 nm and an emission wavelength of 590 nm. The IC50 was defined as the concentration of drug necessary to inhibit by 50% the activity of T. brucei brucei compared to the control. IC50 values were calculated using a non-linear regression analysis of dose-response curves performed using GraphPad Prism software (USA). IC50 values were calculated from three independent experiments.

[3] = system: human telomeric sequence F21T; experiment: FRET-melting, F21T; conditions: K+ condition, 2 μM compound, 0.2 μM oligonucleotide
[4] = system: human duplex sequence FdxT; experiment: FRET-melting, FdxT; conditions: duplex control, K+ condition, 2 μM compound, 0.2 μM oligonucleotide
[5] = system: Plasmodium telomeric sequence FPf1T; experiment: FRET-melting, FPf1T; conditions: K+ condition, 2 μM compound, 0.2 μM oligonucleotide
[6] = system: Plasmodium telomeric sequence FPf8T; experiment: FRET-melting, FPf8T; conditions: K+ condition, 2 μM compound, 0.2 μM oligonucleotide
[7] = system: Trypanosoma 9 and 11 chromosomic sequence FTrypBT; experiment: FRET-melting, FTrypBT; conditions: K+ condition, 2 μM compound, 0.2 μM oligonucleotide
Plasmodium falciparum W2 = experiment: In vitro antiplasmodial activity, SYBR Green I, strain W2; conditions: Plasmodium falciparum, W2, 48 h, read-out: IC50 Plasmodium falciparum W2, chloroquine-resistant strain W2, 48-hour incubation
Experimental: (§1) The in vitro antiplasmodial activities were tested over concentrations ranging from 39 to 40 μm against culture-adapted Plasmodium falciparum: reference strains 3D7 and W2. […] The parasites were cultivated in RPMI medium (Sigma-Aldrich, Lyon, France) supplemented with 0.5% Albumax I (Life Technologies Corporation, Paisley, UK), hypoxanthine (Sigma-Aldrich), and gentamicin (Sigma-Aldrich) with human erythrocytes and were incubated at 37° C. in a candle jar, as described in Desjardins R E et al., Antimicrob Agents Chemother, 1979; 16:710-18.
(§2) The P. falciparum drug susceptibility test was carried out in 96-well flat bottom sterile plates in a final volume of 250 μL. After a 48-hour incubation with the drugs, quantities of DNA in treated and control cultures of parasites in human erythrocytes were quantified using the SYBR Green I (Sigma-Aldrich) fluorescence-based method as described in Bennett T N et al, Antimicrob Agents Chemother, 2004; 48:1807-10. Briefly, after incubation, plates were frozen at −20° C. until use. Plates were then thawed for 2 hours at room temperature, and 100 μL of each homogenized culture was transferred to a well of a 96-well flat bottom sterile black plate (Nunc, Inc., Rochester, NY) that contained 100 μL of the SYBR Green I lysis buffer (2×SYBR Green, 20 mM Tris base pH 7.5, 5 mM EDTA, 0.008% w/v saponin, 0.08% w/v Triton X-100). […] Plates were incubated for 1 hour at room temperature and then read on a fluorescence plate reader (Tecan, Grödig, Austria) using excitation and emission wavelengths of 485 and 535 nm, respectively. Concentrations inhibiting 50% of the parasite's growth (half maximal inhibitory concentration or IC50 values) were then calculated from the obtained experimental results by non-linear regression analysis of data from dose-response curves, using TableCurve 2D version 5.0 software (Systat Software, San Jose, CA). IC50 values are reported as means calculated from three independent experiments, as described in H. Kaddouri et al., Antimicrob.

[8] = system: Plasmodium falciparum 3D7; experiment: In vitro antiplasmodial activity, SYBR Green I, strain 3D7; conditions: Plasmodium falciparum, 3D7, 48 h, read-out: IC50 Plasmodium falciparum 3D7, chloroquine-sensitive strain 3D7, 48-hour incubation
Experimental: as §1, §2

SARS-CoV-2 = experiment: microbe, parasite or virus in culture; type: cell-based; conditions: Severe acute respiratory syndrome coronavirus 2; A549 cells expressing human ACE2, 72 hours after infection, RT-PCR of the N-gene; read-out: IC50 RTqPCR SARS-CoV-2
[9] = 69-hour incubation, Alamar Blue

| SMILES | IC50 at 72 h [1] [nM] | IC50 ([2]; 69 h) [nM] | FRET-melting values in K+ conditions at 2 μM ΔTm F21T [3] [°C] | FRET-melting values in K+ conditions at 2 μM ΔTm FdxT [4] [°C] | FRET-melting values in K+ conditions at 2 μM ΔTm FPf1T [5] [°C] | FRET-melting values in K+ conditions at 2 μM ΔTm FPf8T [6] [°C] | FRET-melting values in K+ conditions at 2 μM ΔTm FtryBT [7] [°C] | IC50 (Plasmodium falciparum W2) [nM] | IC50 [8] [nM] | IC50 [2, 9] [nM] | IC50 (SARS-CoV-2) [nM] |
| --- | --- | --- | --- | --- | --- | --- | --- | --- | --- | --- | --- |
| CN(C)CCCNCc1ccc(-c2nc(-c3ccc(CNCCCN(C)C)cc3)c3ccn(C)c3n2)cc1 [Compound 8B, 2,4-bis{4-[(3-dimethylaminopropyl)aminomethyl]phenyl}-7-methyl-7H-pyrrolo[2,3-d]pyrimidine oxalate] | 16400 | 550 ± 50 | 10.9 | −0.2 | 10.3 | 10.6 | 9.4 | 4460 ± 600 | 1950 ± 690 | – | – |
| CN1CCN(CCCNCc2ccc(-c3nc(-c4ccc(CNCCCN5CCN(C)CC5)cc4)c4ccn(C)c4n3)cc2)CC1 [Compound 9B, 2,4-bis{4-[(3-(4-methylpiperazin-1-yl)propyl)aminomethyl]phenyl}-7-methyl-7H-pyrrolo[2,3-d]pyrimidine oxalate] | 39500 | 1000 ± 100 | 10.4 | 0.0 | 10.1 | 10.1 | 8.4 | 130 ± 50 | 17800 ± 3490 | – | – |
| CN(C)CCCNCc1ccc(-c2nc(-c3ccc(CNCCCN(C)C)cc3)c3ccsc3n2)cc1 [Compound 26B, 2,4-Bis{4-[(4-dimethylaminopropyl)aminomethyl]phenyl}thieno[2,3-d]pyrimidine oxalate] | 2790 | – | 14.1 | 0.3 | 11.2 | 13.2 | 8.6 | 9950 ± 1470 | 4460 ± 350 | 460 ± 40 | – |
| CN1CCN(CCCNCc2ccc(-c3nc(-c4ccc(CNCCCN5CCN(C)CC5)cc4)c4ccsc4n3)cc2)CC1 [Compound 27B, 2,4-Bis{4-[(3-(4-methylpiperazin-1-yl)propyl)aminomethyl]phenyl}thieno[2,3-d]pyrimidine oxalate] | 11200 | 890 ± 100 | 9.72 | −0.10 | 9.6 | 9.0 | 7.9 | 4180 ± 30 | 1950 ± 680 | – | – |
| CN(C)CCCNCc1ccc(-c2nc(-c3ccc(CNCCCN(C)C)cc3)c3sccc3n2)cc1 [Compound 29B, 2,4-Bis{4-[(4-dimethylaminopropyl)aminomethyl]phenyl}thieno[3,2-d]pyrimidine oxalate] | 3190 | – | 19.0 | 1.8 | 20.1 | 20.9 | 17.1 | 2170 ± 410 | 1370 ± 240 | 140 ± 20 | – |
| CN1CCN(CCCNCc2ccc(-c3nc(-c4ccc(CNCCCN5CCN(C)CC5)cc4)c4sccc4n3)cc2)CC1 [Compound 30B, 2,4-Bis{4-[(3-(4-methylpiperazin-1-yl)propyl)aminomethyl]phenyl}thieno[3,2-d]pyrimidine oxalate] | 18900 | 750 ± 100 | 14.5 | 0.5 | 14.9 | 15.2 | 12.8 | 30 | 10800 ± 2950 | – | – |
| CN(C)CCCNCc1ccc(-c2nc(NCCCN(C)C)nc3ccsc23)cc1 [Compound 31B, 2-(3-Dimethylaminopropylamino)-4-{4-[(4-dimethylaminopropyl)aminomethyl]phenyl}thieno[3,2-d]pyrimidine oxalate] | > 60000 | – | 2.0 | −0.7 | 1.8 | 2.9 | 1.8 | 5690 ± 1210 | 40 ± 10 | 2580 ± 210 | – |
| CCN(CC)CCCCNCc1ccc(-c2nc(-c3ccc(CNCCCCN(CC)CC)cc3)c3ccn(-c4ccccc4)c3n2)cc1 [Compound 33B, oxalate] | – | – | – | – | – | – | – | 700 ± 150 | 2470 ± 190 | – | 550 |
| CC(C)N(CCCCCNCc1ccc(-c2nc(-c3ccc(CNCCCCCN(C(C)C)C(C)C)cc3)c3ccn(-c4ccccc4)c3n2)cc1)C(C)C [Compound 34B, oxalate] | – | – | – | – | – | – | – | 770 ± 70 | 930 ± 150 | – | 170 |
| CN(C)CCCCCNCc1ccc(-c2nc(-c3ccccc3)c3ccn(-c4ccc(CNCCCCCN(C)C)cc4)c3n2)cc1 [Compound 35B, oxalate] | – | – | 27.23 | 3.49 | 25.4 | 33.76 | 21.55 | 4740 ± 900 | 6760 ± 470 | – | 560 |
